From US20200094070A1, “METHOD AND APPARATUS FOR PHOTOACTIVATING NUCLEAR RECEPTORS” (THERALASE BIOTECH INC., priority 2017, published 2020)

Tests used:
Rat glioma (RG2) cells [1] = experiment: LLLT combined with 14C PDT, Presto Blue cell kill, RG2 cells; format: cell-based; conditions: for 14C-mediated cell kill after LLLT: RG2, 100 nM 14C
Protocol: (§3) RG2 cells (15,000 cells) or human bladder cancer (T24) cells (10,000 cells) were seeded in complete DMEM in 96-well culture plates and incubated at 37° C., 5% CO2 overnight. The next day, the cells were washed once with PBS and the medium was replaced with complete DMEM without phenol red or sodium pyruvate. Cells were treated with either 660 nm, 905 nm or a combination of both wavelengths at the indicated fluence doses in J/cm^2. After 6 or 24 hours, the media was replaced with media containing the ruthenium-based PDC 14C (100 nM for RG2 cells and 200 nM for T24 cells) for 1 hour, then the PDC was washed away and the cells were treated with PDT using green laser light (wavelength: 530 nm, fluence 20 J/cm^2) using a 96-laser diode array light source (TLD3000, Theralase Inc. Toronto, ON, Canada), after which the plates were returned to the dark in the incubator overnight. Cell viability was measured by Presto Blue cell viability assay quantifying fluorescence at using a plate reader at excitation emissions of 560/600 nm. PDT-mediated cell kill was calculated by subtracting cell kill due to LLLT first and values were normalized to control cells that were kept in the dark and not treated with LLLT.
(§4) RG2 cells (7,500 cells) or human bladder cancer (T24) cells (5,000 cells) were seeded in complete DMEM in 96-well culture plates and incubated at 37° C., 5% CO2 overnight. The next day, the cells were washed once with PBS and the medium was replaced with complete DMEM without phenol red or sodium pyruvate, with or without 10 uM GCR antagonist mifepristone for an additional 24 hours. Cells were treated with either 660 nm, 905 nm or a combination of both wavelengths at the indicated energy doses in J/cm^2. After 6 or 24 hours, the media was replaced with media containing the ruthenium-based photodynamic compound 14C (100 nM for RG2 cells and 200 nM for T24 cells) for 3 hours, then the drug was washed away and the cells were treated with PDT using green laser (wavelength: 530 nm, fluence 20 J/cm^2) using a 96-laser diode array light source (TLD-3000, Theralase Inc. Toronto, ON, Canada), and the plates were returned to the dark in the incubator overnight. Cell viability was measured by Presto Blue cell viability assay quantifying fluorescence at using a plate reader at excitation emissions of 560/600 nm.

CT26WT tumor cells = experiment: LLLT and PDT in vivo hind leg tumor model; parameters: species or system Balb/c mice; conditions: LLLT 2.5-20 J/cm^2 daily for 5 days; injection on day 5; suboptimal red light PDT 90 J/cm^2 4 hours after injection
Protocol: CT26WT tumor cells were implanted in the hind leg of Balb/c mice to develop a hind leg tumor model. […] TLD-1433 (14C) was injected on day 5 of LLLT treatment and suboptimal red light PDT (90 J/cm^2) was performed 4 hours after injection. Tumor size and survival were determined to examine the effect of LLLT on potentiating the effect of 14C-mediated PDT and improving the survival curve.

[2] = test system: human bladder cancer (T24) cells; experiment: LLLT combined with 14C PDT, Presto Blue cell kill, T24 cells; format: cell-based; conditions: for 14C-mediated cell kill after LLLT: T24, 200 nM 14C
Protocol: as §3, §4

[3] = test system: human bladder cancer (T24) cells; experiment: LLLT combined with Cisplatin, Presto Blue cell kill, T24 cells; format: cell-based; conditions: for Cisplatin-mediated cell kill after LLLT: T24, 1.5 ug/ml
Protocol: (§1) After 6 or 24 hours, the cells were treated with Cisplatin (1 ug/ml for RG2 cells or 1.5 ug/ml for T24 cells), and the plates were returned to the incubator overnight. Cell viability was measured by Presto Blue cell viability assay quantifying fluorescence at using a plate reader at excitation emissions of 560/600 nm. Values were normalized to control cells that were kept in the dark and not treated with LLLT.
as §1, with “Values will be” for “Values were”, “that are” for “that were”
(§2) Cells were then treated with either: 1) the ruthenium-based PDC 14C followed by PDT using a green laser light source (FIGS. 24A-24D); 2) the antineoplastic drug Cisplatin (FIGS. 25A-25D). The plates were then returned to the incubator overnight. Cell viability was measured by Presto Blue cell viability assay quantifying fluorescence at using a plate reader at excitation emissions of 560/600 nm. Values were normalized to control cells that were […].

Rat glioma (RG2) cells [4] = experiment: LLLT combined with Cisplatin, Presto Blue cell kill, RG2 cells; format: cell-based; conditions: for Cisplatin-mediated cell kill after LLLT: RG2, 1 ug/ml
Protocol: as §1
as §1, with “Values will be” for “Values were”, “that are” for “that were”
as §2

RG2 cells [5] = conditions: Mifepristone 10 uM, 24 hours
Protocol: (§5) RG2 cells (30,000 cells) or human bladder cancer (T24) cells (20,000 cells) are seeded in complete DMEM in 96-well Seahorse culture plates (Agilent technologies) and incubated at 37° C., 5% CO2. The cells are treated for 24 hours with the GCR agonist, dexamethasone, or the GCR antagonist, Mifepristone (10 uM). The cells are then washed once with PBS and the medium replaced with complete DMEM without phenol red or sodium pyruvate. Cells are treated with either 660 nm, 905 nm or a combination of both wavelengths at energy doses from 0.5 to 10 J/cm^2. Cells are incubated for 24 hours. The media is then replaced with XF media without sodium bicarbonate and the plate placed at 37° C. in XF prep station (0% CO2) for 1 hour. Basal ECAR and OCR levels are measured using XFe96 analyzer (Agilent technologies) per the manufacturer's protocol.

RG2 cells [6] = experiment: Stem-like characteristics of cancer cells (qPCR of stem cell genes, proliferation rate) after LLLT; format: cell-based, rat; conditions: 24 hours pre-treatment
Protocol: Cells were then treated with 905 nm at fluence doses of 5 or 20 J/cm^2. Cells were incubated for 6 hours, then the cells were washed once with PBS and harvested by TRIzol reagent for RNA extraction (Invitrogen) per the manufacturer's protocol. 2 ug of RNA were used to prepare cDNA using the high-capacity cDNA reverse transcription kit (Thermofisher) and the cDNA was diluted 1:10. 2 μl of cDNA was used per PCR reaction using the SYBR green master mix and qPCR was run on the LightCycler 480 (Roche). Gene expression was normalized to the housekeeping gene HPRT, and values were normalized to control cells that were kept in the dark and not treated with LLLT. Relative analysis of stem cell associated transcription factor genes CD133, OCT4, NANOG, SOX2 and LIN28a, or proliferation promoting genes NESTIN, MSI1, MELK and ALDH1a1. […] Phase contrast images (4×) were taken every 4 hours using the Incucyte ZOOM system to calculate percent confluency overtime. […] Proliferation rate was calculated as the inverse of T (time when cells reach confluency halfway between original seeding density (15%) and final 100% confluency). Data were normalized to the corresponding dark control group (0 J/cm^2) for each drug expressed as 1 (not shown). […]

[7] = test system: human bladder cancer (T24) cells; conditions: Mifepristone 10 uM, 24 hours
Protocol: as §5

[8] = LLLT 905 nm PW 5 J/cm^2 or 660 nm CW 2.5 J/cm^2 before PDT 530 nm 20 J/cm^2
[9] = LLLT higher fluence values of 20 and 10 J/cm^2
[10] = 5 J/cm^2 for 905 nm PW and most conditions with 660 nm CW alone (Example 9A)
[11] = 905 nm PW or combined 905 nm PW and 660 nm CW at 20 J/cm^2 (Example 9A)
[12] = T24, 10 uM pre-treatment, no LLLT
[13] = T24, 10 uM, LLLT 905 nm 5 J/cm^2, 660 nm 2.5 J/cm^2 or combination 5 J/cm^2
[14] = RG2, 10 uM pre-treatment, no LLLT
[15] = RG2, 10 uM, LLLT 905 nm 5 J/cm^2, 660 nm 2.5 J/cm^2 or combination 5 J/cm^2

SMILES: Cc1ccnc(-c2cc(C)ccn2)c1.Cc1ccnc(-c2cc(C)ccn2)c1.[Cl-].[Cl-].[Ru+2].c1csc(-c2ccc(-c3ccc(-c4nc5c6cccnc6c6ncccc6c5[nH]4)s3)s2)c1 [14C]
- 14C-mediated cell kill after LLLT (Rat glioma (RG2) cells [1]; [8]): increased
- 14C-mediated cell kill after LLLT (Rat glioma (RG2) cells [1]; [9]): promoted cell survival
- survival of mice, LLLT plus PDT compared to PDT only (CT26WT tumor cells): synergistically increased the survival
- 14C-mediated cell kill after LLLT [2, 8]: increased
- 14C-mediated cell kill after LLLT [2, 9]: promoted cell survival

SMILES: N.N.[Cl][Pt][Cl] [Cisplatin]
- Cisplatin-mediated cell kill after LLLT [3, 10]: promoted cell survival
- Cisplatin-mediated cell kill after LLLT [3, 11]: increased
- Cisplatin effect after LLLT (without Mifepristone) ([3]; T24, 905 nm 5 J/cm^2, 660 nm 2.5 J/cm^2 or combination 5 J/cm^2 (Example 19)): increased
- Cisplatin effective cell kill after LLLT (without Mifepristone) ([3]; T24, higher doses 10-20 J/cm^2 (Example 19)): decreased
- Cisplatin-mediated cell kill after LLLT (Rat glioma (RG2) cells [4]; [10]): promoted cell survival
- Cisplatin-mediated cell kill after LLLT (Rat glioma (RG2) cells [4]; [11]): increased
- Cisplatin effect after LLLT (without Mifepristone) (Rat glioma (RG2) cells [4]; RG2, 905 nm 5 J/cm^2, 660 nm 2.5 J/cm^2 or combination 5 J/cm^2 (Example 19)): increased
- Cisplatin effective cell kill after LLLT (without Mifepristone) (Rat glioma (RG2) cells [4]; RG2, higher doses 10-20 J/cm^2 (Example 19)): decreased

SMILES: CC#C[C@]1(O)CC[C@H]2[C@@H]3CCC4=CC(=O)CCC4=C3[C@@H](c3ccc(N(C)C)cc3)C[C@@]21C [Mifepristone]
- effect on Warburg effect (glycolysis, mitochondrial respiration) (RG2 cells [5]): potentiates the Warburg effect
- effect on LLLT inhibition of the Warburg effect (RG2 cells [5]; then LLLT 0.5 to 10 J/cm^2): reverses the positive effect
- effect of Mifepristone pre-treatment on positive effects of LLLT on stem-like characteristics (RG2 cells [6]): blocked
- effect of Mifepristone treatment on Cisplatin cell kill [3, 12]: did not have any significant effects
- cell kill by Mifepristone treatment alone ([3]; T24, 10 uM, 24 hours (Example 19)): did not induce cell kill
- effect of Mifepristone pre-treatment on the synergistic effect of LLLT on Cisplatin [3, 13]: significantly inhibited
- effect of Mifepristone treatment on PDT cell kill (Rat glioma (RG2) cells [1]; [14]): did not have any significant effects
- cell kill by Mifepristone treatment alone (Rat glioma (RG2) cells [1]; RG2, 10 uM, 24 hours): did not induce cell kill
- effect of Mifepristone pre-treatment on the synergistic effect of LLLT on 14C PDT (Rat glioma (RG2) cells [1]; [15]): significantly inhibited
- effect of Mifepristone treatment on Cisplatin cell kill (Rat glioma (RG2) cells [4]; [14]): did not have any significant effects
- cell kill by Mifepristone treatment alone (Rat glioma (RG2) cells [4]; RG2, 10 uM, 24 hours (Example 19)): did not induce cell kill
- effect of Mifepristone pre-treatment on the synergistic effect of LLLT on Cisplatin (Rat glioma (RG2) cells [4]; [15]): significantly inhibited
- effect on Warburg effect (glycolysis, mitochondrial respiration) [7]: potentiates the Warburg effect
- effect on LLLT inhibition of the Warburg effect ([7]; then LLLT 0.5 to 10 J/cm^2): reverses the positive effect
- effect of Mifepristone treatment on PDT cell kill [2, 12]: did not have any significant effects
- cell kill by Mifepristone treatment alone ([2]; T24, 10 uM, 24 hours): did not induce cell kill
- effect of Mifepristone pre-treatment on the synergistic effect of LLLT on 14C PDT [2, 13]: significantly inhibited
